# Measured values: patent US10246489B2, “Peptide inhibitors of calcium oxalate monohydrate crystallization and uses thereof” (UNIVERSITY OF HOUSTON, priority 2013, dated 2019)
# Entries after “also recorded” stand apart in the source; their conditions may differ.
# What was measured:
# [1] = In situ calcium ion-selective electrode (ISE) measurement of COM crystallization; conditions: for percent reduction in COM growth rate: 20 μg/ml additive, supersaturated calcium oxalate S=5.4, stirred, ISE slope in first 40 min vs control; for increase in peptide efficacy on replacing L-Ala spacer with L-Asp binder (relative to peptide D7): ISE, 20 μg/ml, series D7, D8, D9
# Protocol: The COM growth rate was measured as the slope (dCa/dt) of decreasing Ca^2+ concentration within the first 40 min of crystallization. […] The percent reduction in COM growth rate was calculated by comparing the ISE slopes of peptides and control using the formula, Percent Reduction=[1−(dCa/dt)peptide/(dCa/dt)control]×100%. Data are averages of 2 or 3 measurements (error bars equal two standard deviations);
# COM crystals for bulk crystallization studies were synthesized using a reported procedure that produces micron-sized crystals with large basal (100) surfaces. COM crystals prepared with molar composition 0.7 mM CaCl2: 0.7 mM Na2C2O4: 150 mM NaCl are referred to as the control. Growth solutions prepared with peptides used 20 μg/ml of the additive (unless otherwise stated).
# As such, measurements reported herein were conducted at a single peptide concentration (20 μg/ml) to assess COM growth inhibition. To facilitate comparison of peptides in Table 1, Applicants calculated the percent reduction in COM growth rate using the relative difference in ISE slopes (units of ppm Ca^2+ per time) for peptide and control samples during the first 40 min of crystallization.
# The slope of ISE curves (FIG. 2A) is the temporal change in free Ca^2+ concentration due to COM nucleation (primary and secondary) and crystal growth. Deconvoluting these two processes (nucleation and growth) from ISE data is nontrivial, particularly if one wishes to extract detailed kinetic information of COM growth rates. […] In the current study, the distinct advantage of ISE compared to more traditional approaches is its ease of use and the rapid time for data acquisition that enables high-throughput analysis of large peptide libraries.
# A quantitative comparison of peptide efficacy for inhibiting COM crystallization was performed using in situ ISE measurements. The percent inhibition in COM growth rate was calculated using the relative difference in ISE slopes in the presence of 20 μg/mL peptide. […] The effect of Asp with Glu in peptide sequences was measured on COM growth inhibition (Table 2).
# [2] = Bulk crystallization studies of COM crystal size and habit (optical microscopy, SEM, AFM); conditions: for COM crystal habit / morphology: bulk crystallization with 20 μg/ml peptide
# Protocol: FIGS. 4A-4B show macroscopic characterization of COM crystals from bulk crystallization in solutions of 0.5 mM CaC2O4 and 20 μg/ml peptide. Optical microscopy was used to measure: Percent distribution of elongated hexagonal platelet (shaded bars) and diamond platelet (pattern bars) crystal morphologies (FIG. 4A); and length of the COM (100) basal surface measured along the direction (i.e. apical tip-to-tip distance) for hexagonal and diamond morphologies (FIG. 4B). Data in (FIG. 4A) and (FIG. 4B) are the average of three separate crystallization experiments performed at 60° C. for 3 days (error bars equal one standard deviation). Data for peptide D4 (diamond habit) was omitted based on too few crystals for statistical analysis;
# COM crystals for bulk crystallization studies were synthesized using a reported procedure that produces micron-sized crystals with large basal (100) surfaces. COM crystals prepared with molar composition 0.7 mM CaCl2: 0.7 mM Na2C2O4: 150 mM NaCl are referred to as the control. Growth solutions prepared with peptides used 20 μg/ml of the additive (unless otherwise stated). The crystals were characterized by optical microscopy using a Leica DM2500-M microscope, scanning electron microscope (SEM) using a FEI 235 Dual-Beam Focused Ion-beam instrument, atomic force microscopy (AFM) using an Asylum MFP-3D-SA instrument (Santa Barbara, Calif.), and a calcium ion-selective electrode (ISE, ThermoScientific).
# ISE measurements can be used to screen peptide efficacy, but provide little information regarding the specificity of peptide binding to different surfaces of COM crystals. To this end, Applicants used a second analysis step to identify the effect of peptides on COM crystal size and habit. The influence of the peptide library on macroscopic properties of COM crystals was assessed using bulk crystallization studies and optical and scanning electron microscopy to characterize COM crystals grown in the presence of peptides. In vitro, COM crystallization yields elongated hexagonal platelets with {100} basal surfaces bounded by {010} and crystallographically equivalent {121} apical surfaces (FIG. 3A). […] Applicants observed that multiple peptides in the library reduced growth along the directions, which decreased the crystal aspect ratio (length-to-width) and shifted the morphology from hexagonal to diamond platelets. This change in crystal habit can be attributed to the preferential binding of peptides to COM {121} surfaces, which slows growth along the naturally fast growth directions within the (100) plane.
# To more systematically assess the surface topography of COM crystals, Applicants used atomic force microscopy (AFM) to probe the effect of peptides on COM (100) surface roughness. Crystals extracted from control and peptide D5 batches were prepared on AFM sample disks and imaged in air. The RMS roughness for (100) surfaces of hexagonal-shaped crystals from the control and test peptide D5 were approximately 1.0 and 4.3 nm, respectively.
# Crystal batches prepared in bulk studies were analyzed using optical microscopy to quantify changes in COM crystal size and aspect ratio. […] Although there were clear differences in the percent population of diamond-shaped crystals among peptides tested in this study, Applicants observed that the size of diamond crystals were generally the same, irrespective of peptide sequence (FIG. 4B). The majority of COM hexagonal platelets in peptide samples had similar size and aspect ratio as the control (here Applicants only report the length of COM crystals in FIG. 4B). A notable exception, however, was peptide D4, which produced a 22% increase in the length-to-width aspect ratio of COM hexagonal crystals, and an increase in the length from 35 μm (control) to 75 μm (peptide D4).
# [3] = High-throughput colorimetric calcium depletion assay (crystallization half-time); conditions: 37° C., crystallization volume 600 μL, shaking; logistic fit
# Protocol: Free calcium concentration in the crystallization solution was measured by a colorimetric assay using Quantichrome DICA 500 Calcium assay kit (BioAssay Systems, Hayward, Calif.). Standard solutions (0, 0.1, 0.2, 0.3, 0.4, 0.5, and 1 mM) were prepared using calcium solutions provided with the kit. Detection reagent was prepared by mixing equal volumes of reagent A and reagent B according to manufacturer's instructions. A 10 μL sample was withdrawn from the top of each crystallization well without disturbing the bottom and dispensed into a 96-well microplate. 100 μL of detection reagent was added to each well and incubated for 3 minutes at room temperature. The absorbance was measured at 612 nm using Biotek Synergy H4 microplate reader (BioTek, Winooski, Vt.). Calcium concentration was determined using a calibration curve prepared from standard calcium solutions.
# Time course of depletion of free calcium in the crystallization solution, normalized to the initial concentration, was fitted to a nonlinear logistic function using OriginPro Software (Origin Lab, Northhampton, Mass.). The logistic function relating calcium concentration to time is given by
# where [Ca]t is the normalized calcium concentration at time t, A1 is the normalized initial supersaturation concentration (i.e at t=0), A2 is the normalized equilibrium concentration (i.e. at t=∞), p is the hill coefficient which represents slope of the curve at midpoint, and t1/2 is the crystallization half-time (CHT), defined as the time at which crystallization is 50% complete (i.e. [Ca]t1/2=[…]). A1 was fixed at 1, and A2, p and t1/2 were obtained from fitting the data to equation 1. CHT was used as a measure of inhibition potentials of the peptides. A one-way ANOVA in combination with Tukey post hoc test at p<0.05 level was used to probe statistical significance. Applicants' studied the effects of experimental parameters including volume, shaking and temperature on crystallization in designing a high-throughput screening assay. Applicants have shown the logistic model effectively represents the three phases: induction, crystal growth and equilibrium observed in our setup, and CHT (t1/2) can be used as a measure of efficacy of potential crystal growth modifiers. The peptide library screened comprised of Asp and Ala residues (peptides D1-D13) at optimized assay conditions of 37° C., crystallization volume of 600 μL in a shaking environment. […] The high throughput of the assay provides the opportunity to assess the growth modulation potential of crystal growth modifiers at varying modifier concentrations, supersaturations and ionic strengths with relative ease. […] Finally, the assay can be translated to other crystallization systems in a relatively straightforward fashion for rational design and discovery of growth modifiers for specific applications.
# [4] = Calcium ISE measurements of COM growth at room temperature, Glu-Ala peptide library
# [5] = ISE slopes in the presence of 20 μg/mL peptide, comparison X = D vs X = E
substance,measurement,setting,value
A-E-A-A-A-E-E-A-A-A-E-A-A-A-E-E-A-A (AEAAAEEAAAEAAAEEAA; Synthesized Calcium oxalate monohydrate inhibitory polypeptide) [E5],% inhibition,[1]; [4],36 ± 21%
same,% inhibition,[1]; [5],36 ± 21%
A-E-A-A-E-A-A-A-E-A-A-E-E-A-A-E-A-A (AEAAEAAAEAAEEAAEAA; Synthesized Calcium oxalate monohydrate inhibitory polypeptide) [E6],% inhibition,[1]; [4],52 ± 16%
same,% inhibition,[1]; [5],52 ± 16%
same,COM crystal habit / morphology,[2]; SEM,polydisperse distribution of crystals; also recorded: less effective than E7
A-E-A-A-E-A-A-E-A-A-E-A-A-E-A-A-E-A (AEAAEAAEAAEAAEAAEA; Synthesized Calcium oxalate monohydrate inhibitory polypeptide) [E3],% inhibition,[1]; [5],40 ± 18%
A-E-A-A-E-E-A-A-A-A-A-A-E-A-A-E-A-A (AEAAEEAAAAAAEAAEAA; Synthesized Calcium oxalate monohydrate inhibitory polypeptide) [E7],COM crystal habit / morphology,[2]; SEM,polydisperse distribution of crystals
AADAAAAADDAAAADAAA (Synthesized Calcium oxalate monohydrate inhibitory polypeptide) [D2],"CHT (hr), crystallization half-time",[3],3.533 h
ADAAADAADAADDAADAA (Synthesized Calcium oxalate monohydrate inhibitory polypeptide) [D3],"CHT (hr), crystallization half-time",[3],4.142 h
ADAAADDAAAAAAAADAA (Synthesized Calcium oxalate monohydrate inhibitory polypeptide) [D7],percent reduction in COM growth rate,[1],< 1%
same,[100] thickness of hexagonal platelets relative to control,"[2]; SEM, 20 μg/ml peptide",decreased the [100] thickness of hexagonal platelets by nearly a factor of two
same,"CHT (hr), crystallization half-time",[3],5.771 h
ADAAADDAAADAAAADAA (Synthesized Calcium oxalate monohydrate inhibitory polypeptide) [D8],percent reduction in COM growth rate,[1],~6%
same,increase in peptide efficacy on replacing L-Ala spacer with L-Asp binder (relative to peptide D7),[1],an order of magnitude increase in efficacy
same,percentage of diamond-shaped crystals in total crystal population,"[2]; 20 μg/ml peptide, 60° C. for 3 days, optical microscopy, average of three experiments",largest populations of diamond-shaped crystals
same,population of diamond crystals on doubling peptide concentration,[2]; concentration increased from 20 to 40 μg/ml,did not observe an appreciable increase in the population of diamond crystals
same,"CHT (hr), crystallization half-time",[3],4.792 h
ADAAADDAAADAAADDAA (Synthesized Calcium oxalate monohydrate inhibitory polypeptide) [D9],percent reduction in COM growth rate,[1],40%
same,% inhibition,[1]; [5],36 ± 8%
same,increase in peptide efficacy on replacing L-Ala spacer with L-Asp binder (relative to peptide D7),[1],~70
same,"CHT (hr), crystallization half-time",[3],7.277 h
ADAAADDDAAADAAADDD (Synthesized Calcium oxalate monohydrate inhibitory polypeptide) [D6],factor of increase of the [001] length of hexagonal COM crystals relative to the control,[2]; 20 μg/ml peptide,1.5
same,"CHT (hr), crystallization half-time",[3],5.041 h
ADAADAAADAADDAADAA (Synthesized Calcium oxalate monohydrate inhibitory polypeptide) [D10],% inhibition,[1]; [5],36 ± 5%
same,"CHT (hr), crystallization half-time",[3],6.054 h
ADAADAADAADAADAADA (Synthesized Calcium oxalate monohydrate inhibitory polypeptide) [D4],percent reduction in COM growth rate,[1],20%
same,% inhibition,[1]; [5],21 ± 10%
same,[001] length of COM hexagonal crystals,"[2]; 20 μg/ml peptide, control 35 μm",75 μm
same,increase in the length-to-width aspect ratio of COM hexagonal crystals,"[2]; 20 μg/ml peptide, vs control (2.67±0.05)",22%
same,COM crystal habit / morphology,[2]; SEM,higher length-to-width aspect ratio
same,"CHT (hr), crystallization half-time",[3],4.432 h
ADAADDAAAAAADAADAA (Synthesized Calcium oxalate monohydrate inhibitory polypeptide) [D11],COM crystal habit / morphology,[2]; SEM,large {121} surface area
same,"CHT (hr), crystallization half-time",[3],5.767 h
ADADADADADADADADAD (Synthesized Calcium oxalate monohydrate inhibitory polypeptide) [D13],"CHT (hr), crystallization half-time",[3],8.114 h
ADDAADAADAADDAADDA (Synthesized Calcium oxalate monohydrate inhibitory polypeptide) [D12],"CHT (hr), crystallization half-time",[3],7.135 h
DDDAAAAADDDAAAAADD (Synthesized Calcium oxalate monohydrate inhibitory polypeptide) [D1],factor of increase of the [001] length of hexagonal COM crystals relative to the control,[2]; 20 μg/ml peptide,2.0
same,COM crystal habit / morphology,[2]; SEM,small {121} surface area
same,"CHT (hr), crystallization half-time",[3],6.482 h
